# Source: ChEMBL document CHEMBL1147916, “2-(2-(2-Ethoxybenzoylamino)-4-chlorophenoxy)-N-(2-ethoxybenzoyl)benzamine inhibits EAT cell induced angiogenesis by down regulation of VEGF secretion” (2007)
# Active and inactive are the calls of the source. The rule behind the calls is not given here.
# How the values were obtained:
# [1] = Antiangiogenic activity against swiss albino mouse EAT cells assessed as decrease in body weight at 100 mg/kg after 6 days; format: functional; parameters: scale not given: the % may be the effect or the level left
# EAT [2] = experiment: Antiangiogenic activity against EAT cells bearing Swiss Albino mouse assessed as ascites volume at 100 mg/kg after 12 days; format: functional, organism-based; parameters: dose 100 mg/kg
# EAT [3] = experiment: Antiangiogenic activity against EAT cells bearing Swiss Albino mouse assessed as cell number at 100 mg/kg after 12 days by trypan blue dye exclusion method; format: functional, organism-based; parameters: dose 100 mg/kg
# EAT [4] = experiment: Inhibition of VEGF secretion in EAT cells bearing Swiss Albino mouse at 100 mg/kg after 6 days by VEGF ELISA; format: functional, organism-based; parameters: dose 100 mg/kg
# EAT [5] = experiment: Antiangiogenic activity against EAT cells bearing Swiss Albino mouse assessed as microvasculature at 100 mg/kg after 6 days by peritoneal angiogenesis assay; format: functional, organism-based; parameters: dose 100 mg/kg
# EAT [6] = experiment: Antiangiogenic activity against EAT cells bearing Swiss Albino mouse by CAM assay; format: functional
smiles,measurement,setting,value
CCOc1ccccc1C(=O)Nc1ccccc1Oc1ccc(Cl)cc1NC(=O)c1ccccc1OCC,Activity,[1],65%
same,Activity,EAT [2],Active
same,Activity,EAT [3],Active
same,Activity,EAT [4],Active
same,Activity,EAT [5],Active
same,Activity,EAT [6],Active
